Reference: ChEMBL document CHEMBL1201862, “PubChem BioAssay data set” (2004)
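Protocol summary: plate cells (96-well), add compound at 5 concentrations, incubate 48 h, interpolate endpoints linearly. Here, GI50 denotes the concentration required for 50% inhibition of growth.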 Active and inactive are the calls of the source. Cut-off read from the data, not from the text of the source: active = GI50 up to about 1.1 µM and inactive = higher.

What was measured:
Assay in all cases: growth of human tumour cells (NCI), 48 h
SN12C = system: SN12C
M14 = system: M14
MOLT-4 = system: MOLT-4
UO-31 = system: UO-31
COLO 205 = system: COLO 205
U-251 = system: U-251
HL-60 = system: HL-60
LOX IMVI = system: LOX IMVI
UACC-62 = system: UACC-62
RPMI-8226 = system: RPMI-8226
SK-MEL-5 = system: SK-MEL-5
NCI-H226 = system: NCI-H226
786-0 = system: 786-0
CAKI-1 = system: CAKI-1
OVCAR-4 = system: OVCAR-4
NCI/ADR-RES = system: NCI/ADR-RES
MDA-MB-231 = system: MDA-MB-231
MDA-MB-435 = system: MDA-MB-435

Measured: GI50

Cc1cccc(-c2nnc3s/c(=C\c4ccc(N(C)C)cc4)c(=O)n23)c1
inactive: SN12C > 100 µM | M14 > 100 µM | MOLT-4 > 100 µM | UO-31 > 100 µM | COLO 205 > 100 µM | U-251 > 100 µM | HL-60 > 100 µM | LOX IMVI > 100 µM | UACC-62 > 100 µM | RPMI-8226 > 100 µM | SK-MEL-5 > 100 µM | NCI-H226 > 100 µM | 786-0 > 100 µM | CAKI-1 > 100 µM | OVCAR-4 > 100 µM

N[C@H](C(=O)O)[C@@H](Cl)CC(=O)O
inactive: SN12C > 100 µM | M14 > 100 µM | MOLT-4 > 100 µM | UO-31 > 100 µM | COLO 205 > 100 µM | U-251 > 100 µM | HL-60 > 100 µM | LOX IMVI > 100 µM | UACC-62 > 100 µM | RPMI-8226 > 100 µM | SK-MEL-5 > 100 µM | NCI-H226 > 100 µM | 786-0 > 100 µM | CAKI-1 > 100 µM | OVCAR-4 > 100 µM

COc1cccc2c1CCc1ccccc1CC2=O
inactive: SN12C > 100 µM | M14 > 100 µM | MOLT-4 > 100 µM | UO-31 > 100 µM | COLO 205 > 100 µM | U-251 > 100 µM | HL-60 > 100 µM | LOX IMVI > 100 µM | UACC-62 > 100 µM | RPMI-8226 > 100 µM | SK-MEL-5 > 100 µM | NCI-H226 > 100 µM | 786-0 > 100 µM | CAKI-1 > 100 µM | OVCAR-4 39.2 µM

Oc1cc(CN2CCOCCOCCOCCOCC2)c(O)cc1CN1CCOCCOCCOCCOCC1
inactive: SN12C > 10 µM | M14 18.3 µM | MOLT-4 24.3 µM | UO-31 > 71.3 µM | COLO 205 21.2 µM | U-251 > 41.5 µM | HL-60 23.8 µM | LOX IMVI 24.5 µM | UACC-62 29.2 µM | RPMI-8226 26.2 µM | SK-MEL-5 > 61.2 µM | NCI-H226 > 61.5 µM | 786-0 27.2 µM | CAKI-1 18.1 µM | OVCAR-4 18.4 µM

CN(C)c1nc(N(C)C)n2nc(-c3ccccc3[N+](=O)[O-])nc2n1
inactive: SN12C > 100 µM | M14 > 100 µM | MOLT-4 > 100 µM | UO-31 > 100 µM | COLO 205 70.1 µM | U-251 > 100 µM | HL-60 > 100 µM | LOX IMVI > 100 µM | UACC-62 > 100 µM | RPMI-8226 89.7 µM | SK-MEL-5 > 100 µM | NCI-H226 > 100 µM | 786-0 49.9 µM | CAKI-1 > 100 µM | OVCAR-4 > 100 µM

CC(=O)c1ccc2c(c1)oc(=O)n2CCN(C)C
inactive: M14 > 100 µM | MOLT-4 > 100 µM | NCI/ADR-RES > 100 µM | COLO 205 > 100 µM | U-251 > 100 µM | HL-60 > 100 µM | LOX IMVI > 100 µM | UACC-62 > 100 µM | NCI-H226 > 100 µM | MDA-MB-231 > 100 µM | 786-0 > 100 µM | CAKI-1 > 100 µM | MDA-MB-435 > 100 µM

CCc1cccc(C(C)C)c1NC(=O)C(=O)C(Cc1nc2ccccc2nc1O)C(=O)OC (stereo not drawn)
inactive: SN12C > 100 µM | M14 > 100 µM | MOLT-4 > 100 µM | UO-31 > 100 µM | COLO 205 43.8 µM | U-251 > 100 µM | HL-60 > 100 µM | LOX IMVI 45 µM | UACC-62 > 100 µM | RPMI-8226 39.2 µM | SK-MEL-5 > 100 µM | NCI-H226 > 100 µM | 786-0 > 100 µM | CAKI-1 > 100 µM | OVCAR-4 > 100 µM

CCCCNC(=S)Nn1c(-c2ccccc2)nc2ccccc2c1=O
inactive: SN12C > 100 µM | M14 > 100 µM | MOLT-4 49.9 µM | UO-31 76.9 µM | COLO 205 > 100 µM | U-251 > 100 µM | HL-60 25.7 µM | LOX IMVI 74.1 µM | UACC-62 > 100 µM | RPMI-8226 > 100 µM | SK-MEL-5 > 100 µM | NCI-H226 > 100 µM | 786-0 > 100 µM | CAKI-1 > 100 µM | OVCAR-4 > 100 µM

CCC(=O)N(O)C(C)(C)C
inactive: SN12C > 100 µM | M14 > 100 µM | MOLT-4 > 100 µM | UO-31 > 100 µM | COLO 205 > 100 µM | U-251 > 100 µM | HL-60 > 100 µM | LOX IMVI > 100 µM | UACC-62 > 100 µM | RPMI-8226 > 100 µM | SK-MEL-5 > 100 µM | NCI-H226 > 100 µM | 786-0 > 100 µM | CAKI-1 > 100 µM | OVCAR-4 > 100 µM

C[Si](C)(C)/N=C1\N2C(=NC1(C(F)(F)F)C(F)(F)F)Sc1ccccc12
inactive: SN12C > 50 µM | M14 > 50 µM | MOLT-4 > 50 µM | UO-31 > 50 µM | COLO 205 > 50 µM | U-251 > 50 µM | HL-60 > 50 µM | LOX IMVI > 50 µM | UACC-62 > 50 µM | RPMI-8226 > 50 µM | SK-MEL-5 > 50 µM | NCI-H226 > 50 µM | 786-0 > 50 µM | CAKI-1 > 50 µM | OVCAR-4 > 50 µM

O=C1C(Cl)C(c2cccc(O)c2)N1n1cnc2ccccc2c1=O (stereo not drawn)
inactive: SN12C > 100 µM | M14 > 100 µM | MOLT-4 57.5 µM | UO-31 15 µM | COLO 205 > 100 µM | U-251 > 100 µM | HL-60 64.7 µM | LOX IMVI > 100 µM | UACC-62 > 100 µM | RPMI-8226 40.7 µM | SK-MEL-5 > 100 µM | NCI-H226 21.6 µM | 786-0 > 100 µM | CAKI-1 76 µM | OVCAR-4 > 100 µM

O=[N+]([O-])c1ccc2nc(/C(=N/Nc3ccccc3)C(O)c3ccco3)c(O)nc2c1 (stereo not drawn)
inactive: SN12C > 100 µM | M14 > 100 µM | MOLT-4 > 100 µM | UO-31 86.5 µM | COLO 205 > 100 µM | U-251 > 100 µM | HL-60 19.9 µM | LOX IMVI 72.4 µM | UACC-62 45.7 µM | RPMI-8226 58.3 µM | SK-MEL-5 44.5 µM | NCI-H226 15.7 µM | 786-0 > 100 µM | CAKI-1 85.5 µM | OVCAR-4 > 100 µM

CCOC(=O)C(CC/C=C\c1ccccc1)N1CCC[C@H]1C(=O)OC (stereo partly drawn)
inactive: SN12C > 100 µM | M14 > 100 µM | MOLT-4 39.1 µM | UO-31 > 100 µM | COLO 205 > 100 µM | U-251 > 100 µM | HL-60 35.8 µM | LOX IMVI > 100 µM | UACC-62 > 100 µM | RPMI-8226 29.7 µM | SK-MEL-5 > 100 µM | NCI-H226 > 100 µM | 786-0 > 100 µM | CAKI-1 > 100 µM | OVCAR-4 > 100 µM
